ChEMBL document CHEMBL3885861, “Open TG-GATES”

Organism: Rattus norvegicus
Test: Open TG-GATES - Regimen: Single
Assay type: toxicity, organism-based, Sprague-Dawley
Design: regimen Single, gender Male, age 6 weeks
Conditions: in vivo, po, 10 mg/kg, route gavage, dose level Low; for APTT / Bas / Eos / Fbg / Hb / Ht / Lym / MCH / MCHC / MCV / Mono / Neu / PT / Plat / RBC / Ret / WBC: tissue Blood; for KIDNEY_L / KIDNEY_R / KIDNEY_TOTAL: tissue Kidney; for LIVER: tissue Liver; for A/G / ALP / ALT / AST / BUN / CRE / Ca / Cl / DBIL / GLC / IP / K / LDH / Na / PL / RALB / TBIL / TC / TG / TP / gamma-GTP: tissue Plasma

CCCc1cc(=O)[nH]c(=S)[nH]1 [PROPYLTHIOURACIL]
TERMINAL_BW (3 h): 181.7 g | APTT (3 h): 15.5 s | Bas (3 h): 0% | Eos (3 h): 0.6% | Fbg (3 h): 202.8 mg/dL | Hb (3 h): 13.1 g/dL | Ht (3 h): 39.5% | Lym (3 h): 78.6% | MCH (3 h): 22.3 pg | MCHC (3 h): 33.3% | MCV (3 h): 66.9 fL | Mono (3 h): 8.6% | Neu (3 h): 12.4% | PT (3 h): 12.9 s | Plat (3 h): 102.8 x10_4/uL | RBC (3 h): 590.2 x10_4/ul | Ret (3 h): 10.1% | WBC (3 h): 92.2 x10_2/uL | KIDNEY_L (3 h): 0.9 g | KIDNEY_R (3 h): 0.9 g | KIDNEY_TOTAL (3 h): 1.7 g | LIVER (3 h): 8.4 g | A/G (3 h): 2 | ALP (3 h): 982.6 IU/L | ALT (3 h): 41.6 IU/L | AST (3 h): 72.2 IU/L | BUN (3 h): 12 mg/dL | CRE (3 h): 0.4 mg/dL | Ca (3 h): 11.1 mg/dL | Cl (3 h): 105 meq/L | DBIL (3 h): 0.042 mg/dL | GLC (3 h): 191.4 mg/dL | IP (3 h): 10.3 mg/dL | K (3 h): 4.8 meq/L | LDH (3 h): 92 IU/L | Na (3 h): 138.6 meq/L | PL (3 h): 122.2 mg/dL | RALB (3 h): 3.6 g/dL | TBIL (3 h): 0.3 mg/dL | TC (3 h): 69.2 mg/dL | TG (3 h): 26.6 mg/dL | TP (3 h): 5.5 g/dL | gamma-GTP (3 h): 1.4 IU/L | TERMINAL_BW (6 h): 174.6 g | APTT (6 h): 15.6 s | Bas (6 h): 0% | Eos (6 h): 0.8% | Fbg (6 h): 208.2 mg/dL | Hb (6 h): 13.7 g/dL | Ht (6 h): 41.1% | Lym (6 h): 78.4% | MCH (6 h): 22 pg | MCHC (6 h): 33.3% | MCV (6 h): 66 fL | Mono (6 h): 7.4% | Neu (6 h): 13.4% | PT (6 h): 12.8 s | Plat (6 h): 100.8 x10_4/uL | RBC (6 h): 622.8 x10_4/ul | Ret (6 h): 8.9% | WBC (6 h): 89.5 x10_2/uL | KIDNEY_L (6 h): 0.8 g | KIDNEY_R (6 h): 0.8 g | KIDNEY_TOTAL (6 h): 1.7 g | LIVER (6 h): 7.7 g | A/G (6 h): 2 | ALP (6 h): 969.6 IU/L | ALT (6 h): 33 IU/L | AST (6 h): 64.6 IU/L | BUN (6 h): 12.4 mg/dL | CRE (6 h): 0.5 mg/dL | Ca (6 h): 10.8 mg/dL | Cl (6 h): 105.4 meq/L | DBIL (6 h): 0.05 mg/dL | GLC (6 h): 181.8 mg/dL | IP (6 h): 10.6 mg/dL | K (6 h): 5.2 meq/L | LDH (6 h): 68 IU/L | Na (6 h): 138.4 meq/L | PL (6 h): 125.8 mg/dL | RALB (6 h): 3.6 g/dL | TBIL (6 h): 0.4 mg/dL | TC (6 h): 68.4 mg/dL | TG (6 h): 34.6 mg/dL | TP (6 h): 5.4 g/dL | gamma-GTP (6 h): 1.4 IU/L | TERMINAL_BW (9 h): 177.5 g | APTT (9 h): 16 s | Bas (9 h): 0% | Eos (9 h): 1.4% | Fbg (9 h): 214.2 mg/dL | Hb (9 h): 13.1 g/dL | Ht (9 h): 39.3% | Lym (9 h): 67% | MCH (9 h): 22 pg | MCHC (9 h): 33.3% | MCV (9 h): 66 fL | Mono (9 h): 11.8% | Neu (9 h): 19.6% | PT (9 h): 12.9 s | Plat (9 h): 109.3 x10_4/uL | RBC (9 h): 596 x10_4/ul | Ret (9 h): 10.2% | WBC (9 h): 70.1 x10_2/uL | KIDNEY_L (9 h): 0.8 g | KIDNEY_R (9 h): 0.9 g | KIDNEY_TOTAL (9 h): 1.7 g | LIVER (9 h): 7.7 g | A/G (9 h): 2.1 | ALP (9 h): 791.6 IU/L | ALT (9 h): 32 IU/L | AST (9 h): 59.2 IU/L | BUN (9 h): 12.8 mg/dL | CRE (9 h): 0.4 mg/dL | Ca (9 h): 10.7 mg/dL | Cl (9 h): 106.4 meq/L | DBIL (9 h): 0.01 mg/dL | GLC (9 h): 192.6 mg/dL | IP (9 h): 10.7 mg/dL | K (9 h): 5.3 meq/L | LDH (9 h): 84.2 IU/L | Na (9 h): 138.2 meq/L | PL (9 h): 135 mg/dL | RALB (9 h): 3.6 g/dL | TBIL (9 h): 0.4 mg/dL | TC (9 h): 73.4 mg/dL | TG (9 h): 38.8 mg/dL | TP (9 h): 5.4 g/dL | gamma-GTP (9 h): 1.4 IU/L | TERMINAL_BW (24 h): 193.7 g | APTT (24 h): 16.3 s | Bas (24 h): 0% | Eos (24 h): 1% | Fbg (24 h): 209.4 mg/dL | Hb (24 h): 13 g/dL | Ht (24 h): 39.1% | Lym (24 h): 77.2% | MCH (24 h): 21.7 pg | MCHC (24 h): 33.1% | MCV (24 h): 65.4 fL | Mono (24 h): 7.2% | Neu (24 h): 14.8% | PT (24 h): 12.3 s | Plat (24 h): 102.3 x10_4/uL | RBC (24 h): 598.4 x10_4/ul | Ret (24 h): 9.7% | WBC (24 h): 90 x10_2/uL | KIDNEY_L (24 h): 0.9 g | KIDNEY_R (24 h): 0.9 g | KIDNEY_TOTAL (24 h): 1.8 g | LIVER (24 h): 9.5 g | A/G (24 h): 2.1 | ALP (24 h): 908.8 IU/L | ALT (24 h): 39.8 IU/L | AST (24 h): 65.6 IU/L | BUN (24 h): 18.8 mg/dL | CRE (24 h): 0.5 mg/dL | Ca (24 h): 11 mg/dL | Cl (24 h): 106.6 meq/L | DBIL (24 h): 0.008 mg/dL | GLC (24 h): 182.6 mg/dL | IP (24 h): 7.3 mg/dL | K (24 h): 5.2 meq/L | LDH (24 h): 85.8 IU/L | Na (24 h): 139.4 meq/L | PL (24 h): 166.4 mg/dL | RALB (24 h): 3.8 g/dL | TBIL (24 h): 0.3 mg/dL | TC (24 h): 94.8 mg/dL | TG (24 h): 97.6 mg/dL | TP (24 h): 5.6 g/dL | gamma-GTP (24 h): 2.8 IU/L
